# Source: patent US20240041050A1, “CELL PENETRATING PEPTIDE MEDIATED RNA TRANSDUCTION WITHIN INSECT CELLS” (PIONEER HI-BRED INTERNATIONAL, INC., priority 2020, published 2024)
# Peptide text beside a SMILES is read from it.
# How the values were obtained:
# Assay in all cases: CPP-mediated delivery of mCherry mRNA cargo into insect cells
# Conditions in all cases: complex of 75 μM unlabeled CPP and 10 μg mCherry mRNA, overnight
# DvWL2 cells = assay type: cell-based, Diabrotica virgifera virgifera
# Excerpt: (§1) Sample preparation and analysis methods were based on those previously reported (Jafari et al. (201 4) “Serum stability and physicochemical characterization of a novel amphipathic peptide C6M 1 for siRNA delivery”, PLoS One, 9(5), e97797; and Gillet et al. (2017) “Investigating Engineered Ribonucleoprotein Particles to Improve Oral RNAi Delivery in Crop Insect Pests”, Frontiers in Physiology, 8(256), doi: 10.3389/fphys.2017.00256). Reagents are described in Examples 1 and 2. Nanocomplex samples were prepared in one of several ways, depending on type of CPP, RNA, or assay. […] Reaction volumes added to cells were 6.38 μL CPP and 6.38 μL mRNA. Final optimal CPP concentration was assessed by amount of fluorescent signal apparent within cells. For insect cell-based assays with CPP-YFP·Cy3-dsRNA or CPP·dsRNA, first a complex formation solution was prepared in molecular biology-grade water containing 90 mg·mL^−1 maltose, 9 mg·mL^−1 mannitol, 392. 16 mM CaCI2, pH 7.0, and vacuum-filtered using Corning™ Disposable Vacuum Filter and Storage System containing a cellulose nitrate filter. Then, increasing amounts of CPP-YFP were added to Cy3-dsRNA, from a molar ratio (CPP-YFP:Cy3-dsRNA) of 1:4 through 8:1 and incubated protected from light at 25° C. for 90 minutes prior to assessment via gel shift and DLS. Reaction volumes added per cell well were comprised of 17 μL reaction solution, 1 μL CPP, 1 μL dsRNA, and 1 μL molecular biology grade water; reaction sizes for larger total volumes were increased in increments of 20 μL and component ratio was held constant to maintain an ionic strength of […]. Final optimal molar ratio selected for cell experiments were determined by increase of the apparent size of the Cy3-dsRNA band on a native agarose gel (FIG. 2A and FIG. 2B), and/or appearance and increase in size of the complex peak detected by a Zetasizer Ultra (Malvern Panalytical, Malvern, United Kingdom) DLS instrument (FIG. 2C). […] Final optimal BAPC1 concentration was assessed by amount of fluorescent signal apparent within cells. […]
# DU182A cells = assay type: cell-based, Diabrotica undecimpunctata
# Excerpt: as §1
# Sf9 cells = assay type: cell-based, Spodoptera frugiperda
# Excerpt: as §1
smiles,measurement,setting,value
"N=C(N)NCCC[C@H](NC(=O)[C@H](Cc1c[nH]c2ccccc12)NC(=O)[C@H](CCCNC(=N)N)NC(=O)[C@@H](N)CS)C(=O)N[C@@H](Cc1c[nH]c2ccccc12)C(=O)N[C@@H](CCCCN)C(=O)N[C@@H](CS)C(=O)N[C@@H](CS)C(=O)N[C@@H](CCCCN)C(=O)N[C@@H](CCCCN)C(=O)O [CyLoP-1, CRWRWKCCKK] (H-CRWRWKCCKK-OH; N-terminus and C-terminus assumed)",fluorescent protein translated from delivered mCherry mRNA (fluorescent signal inside cells),DvWL2 cells,Translation of mRNA into a functional fluorescent protein occurred
same,fluorescent protein translated from delivered mCherry mRNA (fluorescent signal inside cells),DU182A cells,Translation of mRNA into a functional fluorescent protein occurred
same,fluorescent protein translated from delivered mCherry mRNA (fluorescent signal inside cells),Sf9 cells,Translation of mRNA into a functional fluorescent protein occurred
